row,Compound,melting point [°C]
1,CCCC(CCC)C(=O)O[C@H]1CCC=C2C=C[C@H](C)[C@H](CC[C@@H]3C[C@@H](O)CC(=O)O3)[C@H]21,92 to 94
2,CC(C)(C)c1nc(Nc2nc(C(=O)O)cs2)nc(C(C)(C)C)c1O,251 to 253
3,CCc1cc(-c2ccc(F)cc2)c(O)cc1OCCCOc1cccc(Oc2ccccc2C(=O)O)c1CC(C)C,48 to 49
4,CC(C)c1ccnc(C(=O)c2[nH]c3ccc(Cl)cc3c2CC(=O)O)c1,227 to 228
5,N#Cc1ccc(NCc2cc3c(cc2O)CCO3)s1,158 to 160
6,CC(=O)NCc1ccc2c(c1)ncn2-c1cccc(-c2nccs2)c1,156
7,COC(=O)COc1ccc(C(=O)NN(C)C(=O)OC(C)(C)C)cc1,158 to 159
8,CC(=O)c1cc(C(C)=O)cc(S(N)(=O)=O)c1,179 to 181
9,O=C(Nc1cc(C(F)(F)F)nc(C(F)(F)F)c1)C(=O)Nc1cc(C(F)(F)F)nc(C(F)(F)F)c1,271 to 272
10,CCOC(=O)COc1ccccc1C(=O)Nc1ccc(O)cc1,208 to 210
11,CC1(C)CN2C(=O)c3ccccc3C(O)(c3ccccc3)C2=N1 (stereo not drawn),186 to 188
12,CC(C)CC(=O)N[C@@H](Cc1ccccc1)C(=O)CSCc1ccco1,94 to 95
13,Cc1cn2c(nc1=O)CCCCC2,202
14,COc1ccc(-c2ncnc(C(F)(F)F)c2Cl)cc1,104 to 106
15,CC1(C)Sc2cc(Cl)ccc2C2=NN(C(=O)Nc3ccc(C(F)(F)F)cc3)CC21 (stereo not drawn),200 to 202
16,CN1CCN(c2cccc3c2C[C@H](NC(=O)c2ccc(N4CCOCC4)cc2)CO3)CC1,210 to 212
17,COc1ccc(CCCCCCN)cc1,63 to 65
18,CCOC(=O)Cc1cccc(Oc2ccccc2Cl)c1NS(C)(=O)=O,145 to 149
19,COc1ccc(C2C(C(=O)/C=C/c3ccc(OCc4ccccc4)c(OC)c3)C(=O)CC(c3ccc(OCc4ccccc4)cc3)C2[N+](=O)[O-])cc1 (stereo not drawn),76 to 78
20,Nc1nc2ccccc2c2c1ncn2CCOCC#Cc1nccs1,157 to 159
21,CC(=O)c1ccccc1-c1ccc(C(=O)N2Cc3ccc(C(=O)NCc4cccnc4)n3Cc3ccccc32)cc1,149 to 150
22,CC(C)C1(C)C(=O)NC2c3ccccc3C(=O)N21 (stereo not drawn),178 to 200
23,CC(C)C(SC(=O)c1ccccc1)C(=O)NCC(=O)O (stereo not drawn),136 to 137
24,OCC1(CO)CC(Cc2ccc(F)cc2)=NO1,93 to 97
25,CCN(CC)CCNC(=O)c1cc(Cl)c(N)cc1OCCOC,108 to 110
26,O=C(OCc1ccccc1)c1cc2cc(OCc3ccccc3)ccc2cc1OCc1ccccc1,99 to 102

row,Compound,melting point [°C]
1,O=C(O)c1ccc2c(c1)S(=O)(=O)c1cc(C(=O)O)ccc1O2,399 to 401
2,COc1ccc(C#N)c(C)n1,80 to 80.5
3,O=C(O)c1cccc2c1S(=O)(=O)c1ccccc1C2=O,237
4,O=C1Nc2ccccc2C12COc1cc3c(cc12)OCCCO3 (stereo not drawn),235 to 236
5,O=C(NCCO)OCc1ccccc1,55 to 57
6,COCc1nc2c([N+](=O)[O-])cc(Br)cc2n1C,145 to 147
7,CCCc1ccc(C(=O)Nc2ccc3c(c2)CCC3=O)cc1,181 to 184
8,Nc1c(-c2ccc(-c3ccc(F)cc3)cc2)nc2ccc(F)cc2c1C(=O)O,241 to 243
9,CC(=O)NCC1CN(c2ccc(N3CCN(c4nc5ccc(F)cc5o4)CC3)c(F)c2)C(=O)O1 (stereo not drawn),233 to 234
10,COc1ccc(S(=O)(=O)Nc2cccnc2/C=C/c2ccc(O)cc2)cc1,217 to 219
11,O=C(Nc1ccc(Nc2ccccc2)cc1)OCCc1ccc([N+](=O)[O-])cc1,146 to 148
12,O=C(O)CCCc1ccc(-c2ccc(F)cc2F)cc1,76 to 77
13,c1ccc(-c2cn3c4c(sc3n2)CCCC4)cc1,158 to 160
14,Cc1nc(CC(=O)O)no1,101 to 103
15,CN1CC(CO)OC1=C(C#N)C=C1Nc2ccccc2C1=O (stereo not drawn),236 to 238
16,CN(C)CC1=NC(O)(CCl)CS1 (stereo not drawn),90 to 92
17,CCOC(=O)c1ccc2c(c1)sc1cc(Cl)ccc12,120 to 122
18,CN(CCCc1ccccc1)[C@H]1CC[C@H](c2ccc([N+](=O)[O-])cc2)CC1,55 to 56
19,Clc1cccc(/C=C/[C@H]2CCCN2c2ncnc3[nH]cnc23)c1,194 to 196
20,Oc1ccc2c(c1)CCCC(c1ccccc1)=C2c1ccc(OCCI)cc1,229 to 231
21,O=C(c1cc(-c2ccccc2)c(=O)n2c1-c1ccccc1C2)N1CCN(c2ccccc2)CC1,208 to 210
22,COC(=O)c1cc(-c2cccc([N+](=O)[O-])c2)cc2c1OCC2,53 to 57
23,O=C(Nc1ccc(C(F)(F)F)cc1)Nc1ccc2[nH]c(C(F)(F)F)nc2c1,223 to 228
24,COc1nc2ccccc2cc1NC(=O)N1CCN(c2cccc(O)c2)CC1,190 to 191
25,COC(=O)C1CN(C)CCC1c1ccc(Cl)c(Cl)c1 (stereo not drawn),70 to 75
26,NCCCOc1ccc(-c2nnc(CSCCOc3ccccc3)o2)cc1,30 to 35

row,Compound,melting point [°C]
1,O=S(=O)(N=Cc1cccnc1)c1ccccc1,123
2,Cc1csc(Cc2ccc(NC(=O)/C=C/c3cnn(C)c3-c3ccc(F)cc3)cc2)n1,217 to 218
3,COC(=O)C1=C(C)NC2=C(C(=O)OC2C)C1c1ccccc1Cl (stereo not drawn),228 to 233
4,CN1CCN(CCCNc2ncc3cc(-c4c(Cl)cccc4Cl)c(NC(=O)NCc4ccccc4)nc3n2)CC1,144 to 148
5,CC(C)[C@H](NC(=O)/C=C/c1nccs1)C(=O)N[C@@H](Cc1ccccc1)[C@@H](O)[C@H](O)[C@H](Cc1ccccc1)NC(=O)[C@@H](NC(=O)/C=C/c1nccs1)C(C)C,> 260
6,C[C@@H]1Cc2c(N3CCN(C)CC3)c(F)cc3c(=O)c(C(=O)O)cn1c23,249 to 252
7,Cc1cccc2c1C1(CCC(=O)NC1=O)CCC2=O (stereo not drawn),285 to 287
8,C=C(C)C(=O)Oc1ccc(S(=O)(=O)NC)cc1,106 to 107
9,O=C1c2ccccc2C(=O)N1CCCCn1cnc(-c2ccc([N+](=O)[O-])cc2)c1,170 to 172
10,O=[N+]([O-])c1cc(F)c(Cl)c(Br)c1Cl,51 to 53.5
11,Cc1nc(N)c2nc(C)n(NCCCNS(C)(=O)=O)c2c1C,215 to 217
12,CCN(CC)C1CCCCN(CC(=O)N2c3ccccc3C(=O)Nc3cccnc32)C1 (stereo not drawn),222 to 224
13,Cc1noc(NC(=O)CCl)c1C,97 to 100
14,c1ccc(CN(Cc2ccccc2)c2c(-c3ccccc3)sc3ccccc23)cc1,92 to 93
15,CCc1noc(-c2cc3c(cn2)[nH]c2ccc(S(=O)(=O)N(C)C)cc23)n1,266 to 268
16,CCn1cc(C(=O)O)c(=O)c2cc(F)c(N3CCNCC3)c(OC)c21,169
17,C#CCn1cccc1-c1nc(-c2ccc(OC)cc2)c(-c2ccc(OC)cc2)s1,102 to 104
18,CCC(=O)C(=O)NC(=O)[C@@H](N)Cc1ccccc1,121 to 123
19,OCCNc1cc(Nc2ccc(N3CCOCC3)cc2)ncn1,204 to 207
20,COC(=O)c1oc2c(OC)cccc2c1O,114
21,CC(C)N(C(=O)n1oc(=O)[nH]c1=O)c1ccccc1,116 to 117
22,CCC(C)Oc1ccccc1-c1nc2ccc(C(=O)O)cc2c(=O)[nH]1 (stereo not drawn),242 to 244
23,O=c1nc(N2CCCc3ccccc32)sc2ncccc12,174 to 175
24,CC(=O)Nc1cccc(-c2c(C)c(NC(=O)CC(C)(C)C)c(C)c3c2OCC3c2ccc(C(C)C)cc2)n1 (stereo not drawn),205 to 208
25,Cn1c(=O)n(CCCN2CCC3(CC2)C(=O)NCN3c2ccccc2)c2ccccc21,164
26,Cc1cc(C)c(N2c3ccccc3Sc3ccccc32)c(C)c1,192 to 200

row,Compound,melting point [°C]
1,CC(=O)NC[C@H]1CN(c2ccc(C=C(Br)Br)c(F)c2)C(=O)O1,177 to 179
2,Cc1cc2c(=O)c(Cc3cccnc3)cn3c4ccc(Br)cc4c(c1)c23,202 to 204
3,CCCS(=O)(=O)c1c(C)nn(-c2c(Cl)cc(C(F)(F)F)cc2Cl)c1N,146 to 147
4,CCOC(=O)CCCc1oc(-n2ccnc2C)nc1-c1ccc(Cl)cc1,72 to 73
5,O=C(O)C1(CC#CBr)CCCCC1,98
6,O=C(N[C@H]1CC[C@H](CCN2CCN(c3nccc4c3CCO4)CC2)CC1)C1CCC1,202
7,Cc1ccc(NC(=O)c2ccc(/C=C/C(=O)NO)cc2)cc1Nc1nc(-c2cccnc2)cs1,154
8,CC(C)(C)NC(=S)Nc1cc(Cl)cc(Cl)c1,164 to 165
9,Nc1ccc2ccc(Oc3cccnc3)nc2n1,178
10,COc1cc(OCC2CCCCC2)ccc1/C=C/c1cc(/C=C/c2ccc3cc[nH]c3c2)[nH]n1,104 to 108
11,CC(=O)Nc1ccccc1CSc1nc2ccccc2[nH]1,218 to 222
12,CCCn1c(COCC)nc2c(N)nc3cc(OC4CCN(S(C)(=O)=O)CC4)ccc3c21,215 to 217
13,CCC(C)(N)Cc1c[nH]c2ccccc12 (stereo not drawn),112
14,COc1ccc2c(c1)C(=O)N(c1ccc3cccnc3c1)C2,220 to 223
15,c1ccc(C2(c3ccccc3)CCNCCO2)cc1,72 to 75
16,CN1CCCN(C(=O)Nc2ccccc2Cc2ncc[nH]2)CC1,139 to 143
17,Cn1ccc(-c2cc3nccnc3[nH]2)c1,211 to 213
18,NC(=O)CON=C(c1ccc(Cl)cc1)c1ccc(Cl)cc1,141 to 142
19,CS(=O)(=O)c1ccc(C2=C(c3ccc(F)c(Cl)c3)CCC2)cc1,87.5 to 88.5
20,c1ccc2c(c1)CSc1nncn1-2,188 to 190
21,Cc1c(Cl)c(Cl)c(Cl)c(Cl)c1C=O,187 to 194
22,O=c1cc(-c2cc(OCc3ccccc3)cc(OCc3ccccc3)c2)oc2cc(OCC(O)CN3CCN(c4ccccc4)CC3)ccc12 (stereo not drawn),168 to 170
23,N=C(N)NCc1ccc(N)c(I)c1,135 to 137
24,CCCCc1nc2cncc(C)c2[nH]1,111 to 124
25,CC(C)C(C)(C#N)NC(=O)c1ccccc1C(=O)O (stereo not drawn),154 to 155
